What was measured:
ACE = ACE (Homo sapiens, UniProt P12821); settings: cited from earlier work
[1] = cited from earlier work; for time of peak serum/plasma concentration: following oral administration; for terminal half-life: in vivo
[2] = system: reperfusion-induced hypertension in uninephrectomized anesthetized rats; assay: Model of acute angiotensin-mediated renal hypertension in anesthetized rats (SBP, DBP, HR); type: in vivo, rat
Procedure: Male Sprague-Dawley rats, weighing 250-300 g, were anaesthetized with pentobarbital sodium (35 mg/kg, i.p.) and placed on a thermic blanket. The temperature was maintained at 37° C. with a thermoregulator via a rectal probe. The animals were tracheotomized to facilitate spontaneous breathing. A polyethylene catheter was placed in the left jugular vein to allow for infusion of pentobarbital sodium to maintain anesthesia. The left femoral vein and artery were cannulated with polyethylene catheters to allow drugs administration and to monitor blood pressure, respectively.
Animals then underwent a left nephrectomy by excising the left kidney via a flank incision. The right kidney and renal vein, artery and ureter were then exposed via a right retroperitoneal incision, under a dissecting microscope. Silk threads were placed around both vessels and ureter. The cavity was then covered with Vaseline oil.
After 30-60 minutes of basal recordings of arterial blood pressure and heart rate the threads around the renal vessels and ureter were tied close to the renal hilum to induce complete renal ischemia of the right kidney. After 2 hours of ischemia, the threads were removed to allow renal reperfusion and urine output.
For irbesartan experiments and comparisons, control (vehicle) or drug (irbesartan (100 μg/kg), lercanidipine (7.5 μg/kg), or both lercanidipine (7.5 μg/kg) and irbesartan (100 μg/kg)) were administered intravenously at 5 min after reperfusion was begun.
Results were expressed as mean values ±S.E. (in the tables) and in percent change observed.
To evaluate the effects of drugs administration on blood pressure and heart rate within each group, two-way ANOVA and Dunnet's test were used (“within treatment”). To evaluate the statistical differences among the treatment groups, data are analyzed using a three-way ANOVA (analysis of variance) with repeated measures on factor time and pre-planned multiple comparisons. The analysis was performed using, for each treatment, delta values (log transformation). […] (“between treatments”).

[3] = system: reperfusion-induced hypertension in uninephrectomized anesthetized rats; assay: as above; type: in vivo, rat; remark: listed apart in the source
AT1 receptor = molecular target: T1, AT1 receptor (Homo sapiens, UniProt P30556); settings: cited from earlier work
T1 sequence (P30556 1-359): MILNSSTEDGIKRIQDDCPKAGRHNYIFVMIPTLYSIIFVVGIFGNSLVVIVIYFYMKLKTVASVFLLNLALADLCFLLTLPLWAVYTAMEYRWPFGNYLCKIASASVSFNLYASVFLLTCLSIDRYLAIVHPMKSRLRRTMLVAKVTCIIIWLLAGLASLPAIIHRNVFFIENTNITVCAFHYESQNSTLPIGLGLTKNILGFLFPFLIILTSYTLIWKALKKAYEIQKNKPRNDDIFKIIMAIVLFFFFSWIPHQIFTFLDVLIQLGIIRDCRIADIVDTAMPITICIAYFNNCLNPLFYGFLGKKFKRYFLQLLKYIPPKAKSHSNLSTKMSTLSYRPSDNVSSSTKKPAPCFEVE

[4] = valsartan 30 μg/kg i.v., n=7, time 0 min, basal, pre-drug
[5] = valsartan 30 μg/kg i.v., n=7, time 120 min, end of ischemia, pre-drug
[6] = valsartan 30 μg/kg i.v., n=7, time 130 min, 5 min after drug
[7] = valsartan 30 μg/kg i.v., n=7, time 135 min, 10 min after drug
[8] = valsartan 30 μg/kg i.v., n=7, time 150 min, 25 min after drug
[9] = valsartan 30 μg/kg i.v., n=7, time 165 min, 40 min after drug
[10] = valsartan 30 μg/kg i.v., n=7, time 180 min, 55 min after drug
[11] = valsartan 30 μg/kg i.v., n=7, time […], 5 min reperfusion, pre-drug
[12] = between treatments, three-way ANOVA on delta values, lercanidipine 10 μg/kg, valsartan 30 μg/kg i.v.
[13] = between treatments, three-way ANOVA on delta values, lercanidipine 7.5 μg/kg, irbesartan 100 μg/kg i.v.
[14] = irbesartan 100 μg/kg i.v., n=6, time 0 min, basal, pre-drug
[15] = irbesartan 100 μg/kg i.v., n=6, time 120 min, end of ischemia, pre-drug
[16] = irbesartan 100 μg/kg i.v., n=6, time 130 min, 5 min after drug
[17] = irbesartan 100 μg/kg i.v., n=6, time 135 min, 10 min after drug
[18] = irbesartan 100 μg/kg i.v., n=6, time 150 min, 25 min after drug
[19] = irbesartan 100 μg/kg i.v., n=6, time 165 min, 40 min after drug
[20] = irbesartan 100 μg/kg i.v., n=6, time 180 min, 55 min after drug
[21] = irbesartan 100 μg/kg i.v., n=6, time […], 5 min reperfusion, pre-drug

Chain of ACE (P12821 30-1306, species assumed): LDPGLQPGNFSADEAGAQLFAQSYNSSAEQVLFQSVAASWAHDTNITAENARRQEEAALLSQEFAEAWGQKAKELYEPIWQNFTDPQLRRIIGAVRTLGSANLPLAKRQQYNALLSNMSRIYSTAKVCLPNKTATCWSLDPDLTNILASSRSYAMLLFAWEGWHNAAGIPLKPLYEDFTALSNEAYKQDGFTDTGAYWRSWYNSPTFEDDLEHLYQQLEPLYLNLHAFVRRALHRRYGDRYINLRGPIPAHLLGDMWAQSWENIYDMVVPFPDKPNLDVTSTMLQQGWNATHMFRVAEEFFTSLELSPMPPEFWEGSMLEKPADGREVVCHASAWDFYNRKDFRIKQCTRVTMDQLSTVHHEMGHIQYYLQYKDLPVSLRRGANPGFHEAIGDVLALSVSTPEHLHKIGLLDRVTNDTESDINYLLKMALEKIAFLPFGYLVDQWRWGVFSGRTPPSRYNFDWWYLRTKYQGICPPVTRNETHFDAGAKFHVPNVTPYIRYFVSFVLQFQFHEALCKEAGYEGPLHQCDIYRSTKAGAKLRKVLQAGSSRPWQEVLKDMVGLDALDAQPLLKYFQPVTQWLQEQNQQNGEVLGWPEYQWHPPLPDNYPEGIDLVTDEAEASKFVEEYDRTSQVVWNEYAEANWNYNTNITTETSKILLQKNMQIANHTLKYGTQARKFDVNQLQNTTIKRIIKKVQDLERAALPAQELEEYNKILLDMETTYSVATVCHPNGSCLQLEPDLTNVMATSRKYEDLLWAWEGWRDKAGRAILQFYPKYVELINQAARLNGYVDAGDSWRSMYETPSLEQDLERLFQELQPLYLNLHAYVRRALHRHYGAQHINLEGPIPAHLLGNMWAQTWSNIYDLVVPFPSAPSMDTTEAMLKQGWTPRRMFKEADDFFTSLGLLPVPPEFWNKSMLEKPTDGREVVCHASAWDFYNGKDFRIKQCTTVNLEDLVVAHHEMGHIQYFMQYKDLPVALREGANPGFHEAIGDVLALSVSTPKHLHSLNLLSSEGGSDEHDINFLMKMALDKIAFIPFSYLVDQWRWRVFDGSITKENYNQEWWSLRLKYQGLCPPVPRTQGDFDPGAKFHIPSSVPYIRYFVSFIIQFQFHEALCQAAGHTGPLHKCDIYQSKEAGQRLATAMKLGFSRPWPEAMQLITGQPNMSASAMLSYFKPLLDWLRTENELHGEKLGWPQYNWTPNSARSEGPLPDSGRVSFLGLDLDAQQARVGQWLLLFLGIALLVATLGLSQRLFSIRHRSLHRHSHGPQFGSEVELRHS

## CCCc1nc(C(C)(C)O)c(C(=O)O)n1Cc1ccc(-c2ccccc2-c2nnn[nH]2)cc1 [olmesartan, 4-(1-hydroxy-1-methylethyl)-2-propyl-1-[p-(o-1H-tetrazol-5-ylphenyl)benzyl]imidazole-5-carboxylic acid]
ACE
  inhibition of ACE: does not inhibit
[1]; following oral administration of olmesartan
  cleared in the urine: 35 to 50%
[1]
  time of peak serum/plasma concentration: 1 to 2 h

## CCCCC(=O)N(Cc1ccc(-c2ccccc2-c2nnn[nH]2)cc1)[C@H](C(=O)O)C(C)C [valsartan, N-(1-oxopentyl)-N-[[2′-(1H-tetrazol-5-yl)[1,1′-biphenyl]-4-yl]methyl]-L-valine]
[2]; [4]
  DBP: 66.7 ± 4.1 mmHg
  HR: 372.9 ± 8.4 beats/min
  SBP: 126.4 ± 5.5 mmHg
[2]; [5]
  DBP: 62.1 ± 4.4 mmHg
  HR: 366.4 ± 10.9 beats/min
  SBP: 120.1 ± 4.3 mmHg
[2]; [6]
  DBP: 90.4 ± 4.4 b mmHg
  HR: 372.1 ± 10.0 beats/min
  SBP: 145.6 ± 1.7 mmHg
[2]; [7]
  DBP: 87.1 ± 5.2 b mmHg
  HR: 381.4 ± 7.3 beats/min
  SBP: 143.4 ± 1.0 a mmHg
[2]; [8]
  DBP: 81.4 ± 4.5 b mmHg
  HR: 382.1 ± 6.9 beats/min
  SBP: 136.7 ± 1.9 b mmHg
[2]; [9]
  DBP: 79.7 ± 4.6 b mmHg
  HR: 375.7 ± 7.6 beats/min
  SBP: 135.6 ± 4.0 b mmHg
[2]; [10]
  DBP: 77.3 ± 4.7 b mmHg
  HR: 368.6 ± 6.7 beats/min
  SBP: 130.0 ± 3.9 b mmHg
[2]; [11]
  DBP: 108.1 ± 3.8 mmHg
  HR: 362.1 ± 12.9 beats/min
  SBP: 161.0 ± 2.4 mmHg
[3]; [12]
  Diastolic blood pressure: general differences among groups: p vs Vehicle: p < 0.01
  Heart rate: general differences among groups: p vs Vehicle: ns
  Systolic blood pressure: general differences among groups: p vs Vehicle: ns
[3]; lercanidipine 10 μg/kg, valsartan 30 μg/kg i.v., alone or together
  effect on heart rate (in words): no statistically significant modification on heart rate
[3]; within treatment vs […], lercanidipine 10 μg/kg or valsartan 30 μg/kg i.v.
  time of statistically significant decrease in diastolic blood pressure after administration: 5 to 55 min
ACE
  inhibition of ACE: does not inhibit
[1]
  time of peak serum/plasma concentration: 2 to 4 h

## CCCc1nc2c(C)cc(-c3nc4ccccc4n3C)cc2n1Cc1ccc(-c2ccccc2C(=O)O)cc1 [Telmisartan, 4′-[1,4′-dimethyl-2[-propyl[2,6′-bi-1H-benzimidazol]-1′-yl)methyl]-[1,1′-biphenyl]-2-carboxylic acid]
ACE
  inhibition of ACE: does not inhibit
[1]
  time of peak serum/plasma concentration: 0.5 to 1 h
[1]; intravenous or oral administration
  administered dose eliminated unchanged in feces via biliary excretion: > 97%

## CCCCc1nc(Cl)c(C(=O)O)n1Cc1ccc(-c2ccccc2-c2nn[nH]n2)cc1 [active carboxylic acid metabolite]
[1]
  time of peak serum/plasma concentration: 3 to 4 h
  terminal half-life: 6 to 9 h

## CCCCc1nc(Cl)c(CO)n1Cc1ccc(-c2ccccc2-c2nnn[nH]2)cc1.[K] [losartan, 2-butyl-4-chloro-1-[p-(o-1H-tetrazol-5-ylphenyl)-benzyl]imidazole-5-methanol monopotassium salt]
ACE
  inhibition of ACE: does not inhibit
[1]
  time of peak serum/plasma concentration: 1 h
  terminal half-life: about 2 hours

## CCCCc1ncc(/C=C(\Cc2cccs2)C(=O)O)n1Cc1ccc(C(=O)O)cc1 [Eprosartan, (E)-2-butyl-1 (p-carboxybenzyl)-α-2-thienylmethylimidazole-5-acrylic acid]
AT1 receptor
  affinity for the AT1 receptor relative to the AT2 receptor: about 1000 times
[1]
  time of peak serum/plasma concentration: 1 to 2 h

## CCCCC1=NC2(CCCC2)C(=O)N1Cc1ccc(-c2ccccc2-c2nnn[nH]2)cc1 [irbesartan, 2-butyl-3-[[2′-(1H-tetrazol-5-yl)[1,1′-biphenyl]-4-yl]methyl]-1,3-diazaspiro[4.4]non-1-en-4-one]
[2]; [13]
  Diastolic blood pressure: general differences among groups: p vs Vehicle: p < 0.05
  Heart rate differences among groups: p vs Vehicle: ns
  Systolic blood pressure differences among groups: p vs Vehicle: ns
[2]; [14]
  DBP: 63.8 ± 3.5 mmHg
  HR: 373.3 ± 14.5 beats/min
  SBP: 113.3 ± 6.7 mmHg
[2]; [15]
  DBP: 59.0 ± 2.0 mmHg
  HR: 360.0 ± 13.4 beats/min
  SBP: 112.0 ± 5.6 mmHg
[2]; [16]
  DBP: 86.3 ± 5.8 b mmHg
  HR: 341.7 ± 13.8 beats/min
  SBP: 134.3 ± 5.5 b mmHg
[2]; [17]
  DBP: 90.0 ± 5.6 b mmHg
  HR: 346.7 ± 13.6 beats/min
  SBP: 138.7 ± 5.3 b mmHg
[2]; [18]
  DBP: 91.7 ± 6.1 b mmHg
  HR: 361.7 ± 7.5 a beats/min
  SBP: 139.0 ± 5.7 b mmHg
[2]; [19]
  DBP: 85.7 ± 6.6 b mmHg
  HR: 363.3 ± 11.8 a beats/min
  SBP: 136.0 ± 7.6 b mmHg
[2]; [20]
  DBP: b 79.3 ± 8.1 b mmHg
  HR: 375.0 ± 13.1 b beats/min
  SBP: 125.7 ± 8.3 mmHg
[2]; [21]
  DBP: 107.0 ± 4.8 mmHg
  HR: 336.7 ± 14.1 beats/min
  SBP: 153.7 ± 5.1 mmHg
[2]; lercanidipine 7.5 μg/kg, irbesartan 100 μg/kg i.v., alone or together
  effect on heart rate (in words): no statistically significant change in heart rate
[2]; lercanidipine 7.5 μg/kg, irbesartan 100 μg/kg i.v., alone or together, 5 min after reperfusion
  effect on blood pressure (in words): statistically significant decrease in both systolic and diastolic blood pressure
AT1 receptor
  greater affinity for AT1 receptor compared to AT2 receptor: more than 8500 fold
ACE
  inhibition of ACE: does not inhibit
[1]
  time of peak serum/plasma concentration: 1.5 to 2 h

## CCOc1nc2cccc(C(=O)O)c2n1Cc1ccc(-c2ccccc2-c2nnn[nH]2)cc1 [Candesartan free acid]
AT1 receptor
  greater affinity for the AT1 receptor than the AT2 receptor: < 10,000
